Test results as given in the NIST ThermoML archive (doi:10.1021/acs.jced.8b00132).
Values joined by “and” are separate entries in the source; they are usually repeats but may differ in a detail not shown here. Equal values may be shown once.

O=C(C(F)(F)C(F)(F)F)C(F)(C(F)(F)F)C(F)(F)F [dodecafluoro-2-methylpentan-3-one]
Conditions	thermal conductivity
329.25 K, 73 kPa, Gas, hot wire	0.0137 W/m/K
329.26 K, 72 kPa, Gas, hot wire	0.01377 W/m/K and 0.01374 W/m/K
329.31 K, 120 kPa, Gas, hot wire	0.01393 W/m/K
329.32 K, 120 kPa, Gas, hot wire	0.01375 W/m/K
329.34 K, 27 kPa, Gas, hot wire	0.01343 W/m/K
329.35 K, 27 kPa, Gas, hot wire	0.01345 W/m/K
329.36 K, 26 kPa, Gas, hot wire	0.01404 W/m/K
329.37 K, 26 kPa, Gas, hot wire	0.01398 W/m/K
329.38 K, 120 kPa, Gas, hot wire	0.01375 W/m/K
329.39 K, 105 kPa, Gas, hot wire	0.01386 W/m/K
329.39 K, 120 kPa, Gas, hot wire	0.01376 W/m/K
329.4 K, 105 kPa, Gas, hot wire	0.01386 W/m/K
329.42 K, 73 kPa, Gas, hot wire	0.01371 W/m/K and 0.01373 W/m/K
329.43 K, 72 kPa, Gas, hot wire	0.01372 W/m/K and 0.01375 W/m/K
329.43 K, 67798 kPa, Liquid, transient hot wire	0.07589 W/m/K
329.43 K, 67830 kPa, Liquid, transient hot wire	0.07595 W/m/K
329.47 K, 120 kPa, Gas, hot wire	0.01394 W/m/K
329.48 K, 120 kPa, Gas, hot wire	0.01386 W/m/K
329.48 K, 57461 kPa, Liquid, transient hot wire	0.0733 W/m/K
329.49 K, 57474 kPa, Liquid, transient hot wire	0.07325 W/m/K
329.5 K, 26 kPa, Gas, hot wire	0.01349 W/m/K
329.51 K, 27 kPa, Gas, hot wire	0.01348 W/m/K
329.52 K, 26 kPa, Gas, hot wire	0.01408 W/m/K
329.53 K, 26 kPa, Gas, hot wire	0.01404 W/m/K
329.56 K, 46607 kPa, Liquid, transient hot wire	0.07024 W/m/K
329.56 K, 46614 kPa, Liquid, transient hot wire	0.07022 W/m/K
329.57 K, 105 kPa, Gas, hot wire	0.01395 W/m/K and 0.01394 W/m/K
329.57 K, 120 kPa, Gas, hot wire	0.01381 W/m/K
329.58 K, 120 kPa, Gas, hot wire	0.01371 W/m/K
329.6 K, 72 kPa, Gas, hot wire	0.01381 W/m/K
329.6 K, 73 kPa, Gas, hot wire	0.01369 W/m/K and 0.01372 W/m/K
329.6 K, 67772 kPa, Liquid, transient hot wire	0.07593 W/m/K
329.6 K, 67790 kPa, Liquid, transient hot wire	0.07593 W/m/K
329.61 K, 72 kPa, Gas, hot wire	0.01376 W/m/K
329.63 K, 36730 kPa, Liquid, transient hot wire	0.06726 W/m/K
329.63 K, 36735 kPa, Liquid, transient hot wire	0.06721 W/m/K
329.65 K, 120 kPa, Gas, hot wire	0.01392 W/m/K
329.66 K, 119 kPa, Gas, hot wire	0.0139 W/m/K
329.66 K, 57448 kPa, Liquid, transient hot wire	0.07322 W/m/K
329.68 K, 27 kPa, Gas, hot wire	0.01357 W/m/K
329.68 K, 27945 kPa, Liquid, transient hot wire	0.06427 W/m/K
329.68 K, 27946 kPa, Liquid, transient hot wire	0.0643 W/m/K
329.68 K, 57441 kPa, Liquid, transient hot wire	0.07323 W/m/K
329.69 K, 27 kPa, Gas, hot wire	0.0135 W/m/K
329.7 K, 26 kPa, Gas, hot wire	0.01403 W/m/K and 0.01401 W/m/K
329.74 K, 20516 kPa, Liquid, transient hot wire	0.0619 W/m/K
329.74 K, 20518 kPa, Liquid, transient hot wire	0.0616 W/m/K
329.74 K, 46598 kPa, Liquid, transient hot wire	0.07033 W/m/K
329.74 K, 46602 kPa, Liquid, transient hot wire	0.07022 W/m/K
329.75 K, 104 kPa, Gas, hot wire	0.01402 W/m/K
329.76 K, 104 kPa, Gas, hot wire	0.01399 W/m/K
329.77 K, 120 kPa, Gas, hot wire	0.01378 W/m/K
329.79 K, 73 kPa, Gas, hot wire	0.01373 W/m/K
329.79 K, 120 kPa, Gas, hot wire	0.01373 W/m/K
329.8 K, 14125 kPa, Liquid, transient hot wire	0.05898 W/m/K
329.8 K, 14126 kPa, Liquid, transient hot wire	0.05901 W/m/K
329.8 K, 67755 kPa, Liquid, transient hot wire	0.07593 W/m/K
329.81 K, 67741 kPa, Liquid, transient hot wire	0.07589 W/m/K
329.82 K, 36726 kPa, Liquid, transient hot wire	0.06718 W/m/K
329.82 K, 36730 kPa, Liquid, transient hot wire	0.0673 W/m/K
329.83 K, 118 kPa, Gas, hot wire	0.01407 W/m/K
329.84 K, 118 kPa, Gas, hot wire	0.01403 W/m/K
329.85 K, 73 kPa, Gas, hot wire	0.01336 W/m/K
329.86 K, 72 kPa, Gas, hot wire	0.01334 W/m/K
329.86 K, 8619 kPa, Liquid, transient hot wire	0.05649 W/m/K
329.86 K, 57414 kPa, Liquid, transient hot wire	0.07321 W/m/K
329.86 K, 57423 kPa, Liquid, transient hot wire	0.07327 W/m/K
329.87 K, 27 kPa, Gas, hot wire	0.01359 W/m/K and 0.01357 W/m/K
329.87 K, 8621 kPa, Liquid, transient hot wire	0.05651 W/m/K
329.87 K, 27941 kPa, Liquid, transient hot wire	0.06427 W/m/K
329.88 K, 27942 kPa, Liquid, transient hot wire	0.06429 W/m/K
329.91 K, 4467 kPa, Liquid, transient hot wire	0.05452 W/m/K
329.91 K, 4470 kPa, Liquid, transient hot wire	0.05445 W/m/K
329.94 K, 26 kPa, Gas, hot wire	0.01354 W/m/K and 0.01352 W/m/K
329.94 K, 20524 kPa, Liquid, transient hot wire	0.06153 W/m/K
329.94 K, 46588 kPa, Liquid, transient hot wire	0.07021 W/m/K
329.94 K, 46601 kPa, Liquid, transient hot wire	0.07018 W/m/K
329.95 K, 20523 kPa, Liquid, transient hot wire	0.06156 W/m/K
329.97 K, 120 kPa, Gas, hot wire	0.01385 W/m/K
329.97 K, 177 kPa, Liquid, transient hot wire	0.05208 W/m/K
329.97 K, 178 kPa, Liquid, transient hot wire	0.05208 W/m/K
329.99 K, 120 kPa, Gas, hot wire	0.01382 W/m/K
329.99 K, 180 kPa, Liquid, transient hot wire	0.05206 W/m/K
329.99 K, 67709 kPa, Liquid, transient hot wire	0.0759 W/m/K
